From PubChem BioAssay (NCI)
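Results reflect a 48-hour exposure of cells in 96-well plates to compound at five concentrations. GI50 is the concentration that inhibits growth by half. TGI marks complete inhibition of growth.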

Columns and labels:
Test in all cases: NCI anticancer screen, dose series, 48 h
786-0 renal = tested on: 786-0 renal
A498 renal = tested on: A498 renal
A549 NSCLC = tested on: A549 NSCLC
ACHN renal = tested on: ACHN renal
BT-549 breast = tested on: BT-549 breast
CAKI-1 renal = tested on: CAKI-1 renal
CCRF-CEM leukemia = tested on: CCRF-CEM leukemia
COLO 205 colon = tested on: COLO 205 colon
DU-145 prostate = tested on: DU-145 prostate
EKVX NSCLC = tested on: EKVX NSCLC
HCC-2998 colon = tested on: HCC-2998 colon
HCT-116 colon = tested on: HCT-116 colon
HCT-15 colon = tested on: HCT-15 colon
HOP-62 NSCLC = tested on: HOP-62 NSCLC
HOP-92 NSCLC = tested on: HOP-92 NSCLC
HS 578T breast = tested on: HS 578T breast
HT29 colon = tested on: HT29 colon
IGROV1 ovarian = tested on: IGROV1 ovarian
KM12 colon = tested on: KM12 colon
LOX IMVI melanoma = tested on: LOX IMVI melanoma
M14 melanoma = tested on: M14 melanoma
MALME-3M melanoma = tested on: MALME-3M melanoma
MCF7 breast = tested on: MCF7 breast
MDA-MB-231 breast = tested on: MDA-MB-231 breast
MDA-MB-435 = tested on: MDA-MB-435
NCI-H226 lung = tested on: NCI-H226 lung
NCI-H23 lung = tested on: NCI-H23 lung
NCI-H460 lung = tested on: NCI-H460 lung
NCI-H522 lung = tested on: NCI-H522 lung
NCI/ADR-RES ovarian = tested on: NCI/ADR-RES ovarian
OVCAR-3 ovarian = tested on: OVCAR-3 ovarian
OVCAR-4 ovarian = tested on: OVCAR-4 ovarian
OVCAR-5 ovarian = tested on: OVCAR-5 ovarian
OVCAR-8 ovarian = tested on: OVCAR-8 ovarian
PC-3 prostate = tested on: PC-3 prostate
RPMI-8226 leukemia = tested on: RPMI-8226 leukemia
RXF 393 renal = tested on: RXF 393 renal
SF-268 CNS = tested on: SF-268 CNS
SF-295 CNS = tested on: SF-295 CNS
SF-539 CNS = tested on: SF-539 CNS
SK-MEL-2 melanoma = tested on: SK-MEL-2 melanoma
SK-MEL-28 melanoma = tested on: SK-MEL-28 melanoma
SK-MEL-5 melanoma = tested on: SK-MEL-5 melanoma
SK-OV-3 ovarian = tested on: SK-OV-3 ovarian
SN12C renal = tested on: SN12C renal
SNB-19 CNS = tested on: SNB-19 CNS
SNB-75 CNS = tested on: SNB-75 CNS
SW-620 colon = tested on: SW-620 colon
T-47D breast = tested on: T-47D breast
U251 CNS = tested on: U251 CNS
UACC-257 melanoma = tested on: UACC-257 melanoma
UACC-62 melanoma = tested on: UACC-62 melanoma
UO-31 renal = tested on: UO-31 renal
HL-60(TB) leukemia = tested on: HL-60(TB) leukemia
K-562 leukemia = tested on: K-562 leukemia
MOLT-4 leukemia = tested on: MOLT-4 leukemia
SR leukemia = tested on: SR leukemia
TK-10 renal = tested on: TK-10 renal

SMILES: O=C(/C=C/c1ccncc1)c1cc(Cl)ccc1O
- GI50 (786-0 renal): 17.9 µM
- TGI (786-0 renal): 34.1 µM
- GI50 (A498 renal): 6.96 µM
- TGI (A498 renal): 21.8 µM
- GI50 (A549 NSCLC): 23 µM
- TGI (A549 NSCLC): 53.2 µM
- GI50 (ACHN renal): 23.9 µM
- TGI (ACHN renal): 60 µM
- GI50 (BT-549 breast): 16.6 µM
- TGI (BT-549 breast): 31.1 µM
- GI50 (CAKI-1 renal): 14.3 µM
- TGI (CAKI-1 renal): 38.5 µM
- GI50 (CCRF-CEM leukemia): 7.95 µM
- TGI (CCRF-CEM leukemia): 36.2 µM
- GI50 (COLO 205 colon): 16.8 µM
- TGI (COLO 205 colon): 32.3 µM
- GI50 (DU-145 prostate): 17.4 µM
- TGI (DU-145 prostate): 31.5 µM
- GI50 (EKVX NSCLC): 17.2 µM
- TGI (EKVX NSCLC): 54.5 µM
- GI50 (HCC-2998 colon): 13.5 µM
- TGI (HCC-2998 colon): 28.4 µM
- GI50 (HCT-116 colon): 14.6 µM
- TGI (HCT-116 colon): 27.9 µM
- GI50 (HCT-15 colon): 22.4 µM
- TGI (HCT-15 colon): 63.8 µM
- GI50 (HOP-62 NSCLC): 18.3 µM
- TGI (HOP-62 NSCLC): 43.8 µM
- GI50 (HOP-92 NSCLC): 4.65 µM
- TGI (HOP-92 NSCLC): 19.6 µM
- GI50 (HS 578T breast): 39.5 µM
- TGI (HS 578T breast): > 100 µM
- GI50 (HT29 colon): 14.1 µM
- TGI (HT29 colon): 29.7 µM
- GI50 (IGROV1 ovarian): 15 µM
- TGI (IGROV1 ovarian): 38.5 µM
- GI50 (KM12 colon): 15.7 µM
- TGI (KM12 colon): 32.5 µM
- GI50 (LOX IMVI melanoma): 13.2 µM
- TGI (LOX IMVI melanoma): 29.2 µM
- GI50 (M14 melanoma): 17.5 µM
- TGI (M14 melanoma): 34.1 µM
- GI50 (MALME-3M melanoma): 19.7 µM
- TGI (MALME-3M melanoma): 45.5 µM
- GI50 (MCF7 breast): 13.1 µM
- TGI (MCF7 breast): 27.7 µM
- GI50 (MDA-MB-231 breast): 18.6 µM
- TGI (MDA-MB-231 breast): 42.3 µM
- GI50 (MDA-MB-435): 17.1 µM
- TGI (MDA-MB-435): 41 µM
- GI50 (NCI-H226 lung): 22.7 µM
- TGI (NCI-H226 lung): 58 µM
- GI50 (NCI-H23 lung): 17.2 µM
- TGI (NCI-H23 lung): 38.8 µM
- GI50 (NCI-H460 lung): 15.5 µM
- TGI (NCI-H460 lung): 34.7 µM
- GI50 (NCI-H522 lung): 14.1 µM
- TGI (NCI-H522 lung): 29.6 µM
- GI50 (NCI/ADR-RES ovarian): 22.7 µM
- TGI (NCI/ADR-RES ovarian): 66.4 µM
- GI50 (OVCAR-3 ovarian): 17.3 µM
- TGI (OVCAR-3 ovarian): 32.9 µM
- GI50 (OVCAR-4 ovarian): 27.3 µM
- TGI (OVCAR-4 ovarian): 88.1 µM
- GI50 (OVCAR-5 ovarian): 24 µM
- TGI (OVCAR-5 ovarian): 50.7 µM
- GI50 (OVCAR-8 ovarian): 23.6 µM
- TGI (OVCAR-8 ovarian): 57 µM
- GI50 (PC-3 prostate): 14.8 µM
- TGI (PC-3 prostate): 33.6 µM
- GI50 (RPMI-8226 leukemia): 2.34 µM
- TGI (RPMI-8226 leukemia): 5.25 µM
- GI50 (RXF 393 renal): 18.3 µM
- TGI (RXF 393 renal): 33.1 µM
- GI50 (SF-268 CNS): 22.1 µM
- TGI (SF-268 CNS): 63.7 µM
- GI50 (SF-295 CNS): 15.3 µM
- TGI (SF-295 CNS): 34.8 µM
- GI50 (SF-539 CNS): 18 µM
- TGI (SF-539 CNS): 41.9 µM
- GI50 (SK-MEL-2 melanoma): 19.7 µM
- TGI (SK-MEL-2 melanoma): 37.8 µM
- GI50 (SK-MEL-28 melanoma): 22.6 µM
- TGI (SK-MEL-28 melanoma): 47.5 µM
- GI50 (SK-MEL-5 melanoma): 19.2 µM
- TGI (SK-MEL-5 melanoma): 34.4 µM
- GI50 (SK-OV-3 ovarian): 27.4 µM
- TGI (SK-OV-3 ovarian): 87.7 µM
- GI50 (SN12C renal): 23.4 µM
- TGI (SN12C renal): 68.4 µM
- GI50 (SNB-19 CNS): 17.7 µM
- TGI (SNB-19 CNS): 40.2 µM
- GI50 (SNB-75 CNS): 17.5 µM
- TGI (SNB-75 CNS): 32.2 µM
- GI50 (SW-620 colon): 12.5 µM
- TGI (SW-620 colon): 30.5 µM
- GI50 (T-47D breast): 18.8 µM
- TGI (T-47D breast): 53.1 µM
- GI50 (U251 CNS): 12.7 µM
- TGI (U251 CNS): 26.2 µM
- GI50 (UACC-257 melanoma): 22.2 µM
- TGI (UACC-257 melanoma): 49.7 µM
- GI50 (UACC-62 melanoma): 15.9 µM
- TGI (UACC-62 melanoma): 37.3 µM
- GI50 (UO-31 renal): 11 µM
- TGI (UO-31 renal): 26.7 µM

SMILES: O=S(=O)(CCn1c(Sc2ccccc2)c(Sc2ccccc2)c2ccccc21)c1ccccc1
- TGI (786-0 renal): > 100 µM
- TGI (A498 renal): > 100 µM
- TGI (A549 NSCLC): > 100 µM
- TGI (ACHN renal): > 100 µM
- TGI (BT-549 breast): > 100 µM
- TGI (CAKI-1 renal): > 100 µM
- TGI (CCRF-CEM leukemia): > 100 µM
- TGI (COLO 205 colon): > 100 µM
- TGI (DU-145 prostate): > 100 µM
- TGI (EKVX NSCLC): > 100 µM
- TGI (HCC-2998 colon): > 100 µM
- TGI (HCT-116 colon): > 100 µM
- TGI (HCT-15 colon): > 100 µM
- TGI (HL-60(TB) leukemia): > 100 µM
- TGI (HOP-62 NSCLC): > 100 µM
- TGI (HS 578T breast): > 100 µM
- TGI (HT29 colon): > 100 µM
- TGI (IGROV1 ovarian): > 100 µM
- TGI (K-562 leukemia): > 100 µM
- TGI (KM12 colon): > 100 µM
- TGI (LOX IMVI melanoma): > 100 µM
- TGI (M14 melanoma): > 100 µM
- TGI (MALME-3M melanoma): > 100 µM
- TGI (MCF7 breast): > 100 µM
- TGI (MDA-MB-231 breast): > 100 µM
- TGI (MDA-MB-435): > 100 µM
- TGI (MOLT-4 leukemia): > 100 µM
- TGI (NCI-H226 lung): > 100 µM
- TGI (NCI-H23 lung): > 100 µM
- TGI (NCI-H460 lung): > 100 µM
- TGI (NCI-H522 lung): > 100 µM
- TGI (NCI/ADR-RES ovarian): > 100 µM
- TGI (OVCAR-3 ovarian): > 100 µM
- TGI (OVCAR-4 ovarian): > 100 µM
- TGI (OVCAR-5 ovarian): > 100 µM
- TGI (OVCAR-8 ovarian): > 100 µM
- TGI (PC-3 prostate): > 100 µM
- TGI (RPMI-8226 leukemia): > 100 µM
- TGI (SF-268 CNS): > 100 µM
- TGI (SF-295 CNS): > 100 µM
- TGI (SF-539 CNS): > 100 µM
- TGI (SK-MEL-2 melanoma): > 100 µM
- TGI (SK-MEL-28 melanoma): > 100 µM
- TGI (SK-MEL-5 melanoma): > 100 µM
- TGI (SK-OV-3 ovarian): > 100 µM
- TGI (SN12C renal): > 100 µM
- TGI (SNB-19 CNS): > 100 µM
- TGI (SNB-75 CNS): > 100 µM
- TGI (SR leukemia): > 100 µM
- TGI (SW-620 colon): > 100 µM
- TGI (T-47D breast): > 100 µM
- TGI (TK-10 renal): > 100 µM
- TGI (U251 CNS): > 100 µM
- TGI (UACC-62 melanoma): > 100 µM
- TGI (UO-31 renal): > 100 µM
